Laboratory results: patent US10941158B2, “Pyrazole ACC inhibitors and uses thereof” (Gilead Apollo, LLC, priority 2015, dated 2021)
Converted amounts (≈) assume the structure as drawn. Where two headings read alike, the source gives them in different places.

Columns and labels:
human (hACC2) ACC2 = human (hACC2) ACC2 (Homo sapiens, UniProt O00763); test: In vitro Acetyl-CoA Carboxylase (ACC) inhibition assay (ADP-Glo), hACC2; format: biochemical
Experimental: The detailed procedure is as follows. […] 10 μL ADP glo reagent was added. […] 20 μL kinase detection reagent was added.
“NA” stands for “not assayed.”

C. albicans ATCC 90028 = test: Anti-Fungal (Candida) Activity Assay, broth microtiter MIC; format: cell-based; conditions: read-out: MIC C. albicans ATCC 90028
Outline: (§1)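 MIC by visual comparison of challenged wells with growth control, scored at 48 h. Setup: CLSI M27-A3 broth microtiter plates, RPMI 1640+MOPS medium, direct colony suspension from overnight Sabouraud agar cultures (35 °C, 24 h).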

C. krusei ATCC 6258 = test: as above; format: cell-based; conditions: Pichia kudriavzevii, read-out: MIC C. krusei ATCC 6258
Outline: as §1

[1] = tested on: C. parapsilosis ATCC 22019; test: as above; format: cell-based; conditions: Lodderomyces parapsilosis, read-out: MIC C. parapsilosis ATCC 22019
Outline: as §1

Botrtyis cinerea (Bc) = test: Growth inhibition assay of fungal pathogens; format: cell-based; conditions: 48 h, read-out: Concentration at 90% Inhibition Bc
Outline: (§2)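 Percent growth inhibition was derived from 48 h OD600 and visual scores relative to 2% DMSO, with blank background subtraction. Fungi were grown from spores in 17% V8 liquid medium, R. solani from 1.5 mm plugs in ¼ PDB, with compound at final 50/10/2 or 2/0.4/0.08 ppm.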

[2] = tested on: Collectotrichum graminicola (Cg); test: Growth inhibition assay of fungal pathogens; format: cell-based; conditions: 48 h, read-out: Concentration at 90% Inhibition Cg
Outline: (§3)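 Compounds in DMSO tested at final 50, 10, 2 ppm or 2, 0.4, 0.08 ppm. Spores in 17% V8 medium, or 1.5 mm mycelial plugs in ¼ PDB for R. solani, incubated with compound. OD600 and visual ratings at 48 h versus 2% DMSO control gave percent growth inhibition.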

Diplodia maydis (Dm) = test: Growth inhibition assay of fungal pathogens; format: cell-based; conditions: Stenocarpella maydis, 48 h, read-out: Concentration at 90% Inhibition Dm
Outline: as §2

[3] = tested on: Fusarium moniliforme (Fm); test: Growth inhibition assay of fungal pathogens; format: cell-based; conditions: for IC90: Fusarium verticillioides, 48 h, read-out: Concentration at 90% Inhibition Fm
Outline: as §2

[4] = tested on: Fusarium virguliforme (Fv); test: Growth inhibition assay of fungal pathogens; format: cell-based; conditions: 48 h
Outline: as §3

[5] = tested on: Phytophthora capsici (Pc); test: Growth inhibition assay of fungal pathogens; format: cell-based; conditions: for IC90: Phytophthora capsici, read-out: Concentration at 90% Inhibition Pc
Outline: as §3

Rhizoctonia solani (Rs) = test: Growth inhibition assay of fungal pathogens; format: cell-based; conditions: 48 h, read-out: Concentration at 90% Inhibition Rs
Outline: as §2

Septoria tritici (St) = test: Growth inhibition assay of fungal pathogens; format: cell-based; conditions: for IC90: Zymoseptoria tritici, read-out: Concentration at 90% Inhibition St
Outline: as §3

fungal (fACC2) ACC2 = fungal (fACC2) ACC2 (UniProt Q00955); conditions: read-out: fACC2 IC50; fungal ACC2, ADP-Glo
Chain of fungal (fACC2) ACC2 (Q00955 whole entry): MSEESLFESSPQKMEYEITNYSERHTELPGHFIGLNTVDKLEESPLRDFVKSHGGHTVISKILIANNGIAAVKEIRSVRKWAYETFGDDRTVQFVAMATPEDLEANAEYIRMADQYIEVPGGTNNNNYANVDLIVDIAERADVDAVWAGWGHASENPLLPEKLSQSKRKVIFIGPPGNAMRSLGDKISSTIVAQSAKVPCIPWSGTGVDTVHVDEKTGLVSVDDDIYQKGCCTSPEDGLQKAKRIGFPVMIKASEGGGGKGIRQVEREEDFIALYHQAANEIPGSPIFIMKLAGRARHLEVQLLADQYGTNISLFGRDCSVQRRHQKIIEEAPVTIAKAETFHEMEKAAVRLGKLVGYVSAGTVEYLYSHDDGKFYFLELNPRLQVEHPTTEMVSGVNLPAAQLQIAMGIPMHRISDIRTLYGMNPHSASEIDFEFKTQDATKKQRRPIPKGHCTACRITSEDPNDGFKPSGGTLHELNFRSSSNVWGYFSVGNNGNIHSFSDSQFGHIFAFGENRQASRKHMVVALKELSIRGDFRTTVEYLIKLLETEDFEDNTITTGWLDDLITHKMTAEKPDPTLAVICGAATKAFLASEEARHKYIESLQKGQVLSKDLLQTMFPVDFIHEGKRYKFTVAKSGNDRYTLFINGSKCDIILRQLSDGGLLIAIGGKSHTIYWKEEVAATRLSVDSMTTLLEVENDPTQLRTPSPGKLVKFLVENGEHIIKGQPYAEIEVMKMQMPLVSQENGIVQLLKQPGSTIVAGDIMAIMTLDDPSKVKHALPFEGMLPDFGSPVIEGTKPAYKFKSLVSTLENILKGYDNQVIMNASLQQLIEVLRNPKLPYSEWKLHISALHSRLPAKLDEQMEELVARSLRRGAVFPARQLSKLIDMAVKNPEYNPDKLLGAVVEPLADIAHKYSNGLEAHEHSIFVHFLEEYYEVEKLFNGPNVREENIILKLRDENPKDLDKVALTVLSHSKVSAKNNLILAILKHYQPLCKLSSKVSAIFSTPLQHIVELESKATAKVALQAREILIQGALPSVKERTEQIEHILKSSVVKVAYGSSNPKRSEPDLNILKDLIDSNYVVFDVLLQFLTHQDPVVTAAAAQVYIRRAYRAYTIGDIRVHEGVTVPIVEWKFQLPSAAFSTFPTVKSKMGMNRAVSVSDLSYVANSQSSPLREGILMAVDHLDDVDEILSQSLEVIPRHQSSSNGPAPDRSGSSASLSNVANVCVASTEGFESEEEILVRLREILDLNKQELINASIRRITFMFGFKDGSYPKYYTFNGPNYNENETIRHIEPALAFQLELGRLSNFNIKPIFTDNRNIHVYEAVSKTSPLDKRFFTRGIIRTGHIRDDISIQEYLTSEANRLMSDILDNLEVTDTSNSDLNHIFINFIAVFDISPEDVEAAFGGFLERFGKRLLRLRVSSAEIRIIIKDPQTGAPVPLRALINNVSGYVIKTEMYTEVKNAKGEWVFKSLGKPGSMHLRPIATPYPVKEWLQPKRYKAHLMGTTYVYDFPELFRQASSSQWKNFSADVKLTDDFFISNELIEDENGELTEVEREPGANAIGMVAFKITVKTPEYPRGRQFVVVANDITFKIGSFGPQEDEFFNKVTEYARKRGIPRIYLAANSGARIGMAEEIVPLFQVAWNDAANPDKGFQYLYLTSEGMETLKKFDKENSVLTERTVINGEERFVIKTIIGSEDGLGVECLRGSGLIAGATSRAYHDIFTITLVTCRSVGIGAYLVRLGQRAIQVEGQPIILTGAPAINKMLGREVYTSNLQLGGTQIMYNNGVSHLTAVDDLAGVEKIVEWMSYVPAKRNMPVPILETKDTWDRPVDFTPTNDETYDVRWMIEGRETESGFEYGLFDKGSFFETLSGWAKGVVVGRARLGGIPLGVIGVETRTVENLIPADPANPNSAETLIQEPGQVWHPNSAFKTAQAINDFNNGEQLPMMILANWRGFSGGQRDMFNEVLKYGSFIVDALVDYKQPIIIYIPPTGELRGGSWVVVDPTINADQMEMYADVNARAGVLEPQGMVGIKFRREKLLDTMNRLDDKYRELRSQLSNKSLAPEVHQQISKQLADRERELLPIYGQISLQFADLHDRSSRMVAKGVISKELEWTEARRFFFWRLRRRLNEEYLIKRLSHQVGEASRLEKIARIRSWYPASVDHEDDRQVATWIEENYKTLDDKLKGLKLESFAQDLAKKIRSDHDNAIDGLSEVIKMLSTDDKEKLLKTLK

[6] = read-out: Concentration at 90% Inhibition Fv, Table 4a, 48 hours
[7] = read-out: Concentration at 90% Inhibition Fv, Table 4b, 48 hours
[8] = ATCC90028, 3 replicates, MIC recorded at 48 h
[9] = ATCC6258, 3 replicates, MIC recorded at 48 h
[10] = ATCC22019, 3 replicates, MIC recorded at 48 h
[11] = Table 4a, 48 hours, read-out: Concentration at 90% Inhibition Fv
[12] = Table 4b, 48 hours, read-out: Concentration at 90% Inhibition Fv

Chain of human (hACC2) ACC2 (O00763 whole entry): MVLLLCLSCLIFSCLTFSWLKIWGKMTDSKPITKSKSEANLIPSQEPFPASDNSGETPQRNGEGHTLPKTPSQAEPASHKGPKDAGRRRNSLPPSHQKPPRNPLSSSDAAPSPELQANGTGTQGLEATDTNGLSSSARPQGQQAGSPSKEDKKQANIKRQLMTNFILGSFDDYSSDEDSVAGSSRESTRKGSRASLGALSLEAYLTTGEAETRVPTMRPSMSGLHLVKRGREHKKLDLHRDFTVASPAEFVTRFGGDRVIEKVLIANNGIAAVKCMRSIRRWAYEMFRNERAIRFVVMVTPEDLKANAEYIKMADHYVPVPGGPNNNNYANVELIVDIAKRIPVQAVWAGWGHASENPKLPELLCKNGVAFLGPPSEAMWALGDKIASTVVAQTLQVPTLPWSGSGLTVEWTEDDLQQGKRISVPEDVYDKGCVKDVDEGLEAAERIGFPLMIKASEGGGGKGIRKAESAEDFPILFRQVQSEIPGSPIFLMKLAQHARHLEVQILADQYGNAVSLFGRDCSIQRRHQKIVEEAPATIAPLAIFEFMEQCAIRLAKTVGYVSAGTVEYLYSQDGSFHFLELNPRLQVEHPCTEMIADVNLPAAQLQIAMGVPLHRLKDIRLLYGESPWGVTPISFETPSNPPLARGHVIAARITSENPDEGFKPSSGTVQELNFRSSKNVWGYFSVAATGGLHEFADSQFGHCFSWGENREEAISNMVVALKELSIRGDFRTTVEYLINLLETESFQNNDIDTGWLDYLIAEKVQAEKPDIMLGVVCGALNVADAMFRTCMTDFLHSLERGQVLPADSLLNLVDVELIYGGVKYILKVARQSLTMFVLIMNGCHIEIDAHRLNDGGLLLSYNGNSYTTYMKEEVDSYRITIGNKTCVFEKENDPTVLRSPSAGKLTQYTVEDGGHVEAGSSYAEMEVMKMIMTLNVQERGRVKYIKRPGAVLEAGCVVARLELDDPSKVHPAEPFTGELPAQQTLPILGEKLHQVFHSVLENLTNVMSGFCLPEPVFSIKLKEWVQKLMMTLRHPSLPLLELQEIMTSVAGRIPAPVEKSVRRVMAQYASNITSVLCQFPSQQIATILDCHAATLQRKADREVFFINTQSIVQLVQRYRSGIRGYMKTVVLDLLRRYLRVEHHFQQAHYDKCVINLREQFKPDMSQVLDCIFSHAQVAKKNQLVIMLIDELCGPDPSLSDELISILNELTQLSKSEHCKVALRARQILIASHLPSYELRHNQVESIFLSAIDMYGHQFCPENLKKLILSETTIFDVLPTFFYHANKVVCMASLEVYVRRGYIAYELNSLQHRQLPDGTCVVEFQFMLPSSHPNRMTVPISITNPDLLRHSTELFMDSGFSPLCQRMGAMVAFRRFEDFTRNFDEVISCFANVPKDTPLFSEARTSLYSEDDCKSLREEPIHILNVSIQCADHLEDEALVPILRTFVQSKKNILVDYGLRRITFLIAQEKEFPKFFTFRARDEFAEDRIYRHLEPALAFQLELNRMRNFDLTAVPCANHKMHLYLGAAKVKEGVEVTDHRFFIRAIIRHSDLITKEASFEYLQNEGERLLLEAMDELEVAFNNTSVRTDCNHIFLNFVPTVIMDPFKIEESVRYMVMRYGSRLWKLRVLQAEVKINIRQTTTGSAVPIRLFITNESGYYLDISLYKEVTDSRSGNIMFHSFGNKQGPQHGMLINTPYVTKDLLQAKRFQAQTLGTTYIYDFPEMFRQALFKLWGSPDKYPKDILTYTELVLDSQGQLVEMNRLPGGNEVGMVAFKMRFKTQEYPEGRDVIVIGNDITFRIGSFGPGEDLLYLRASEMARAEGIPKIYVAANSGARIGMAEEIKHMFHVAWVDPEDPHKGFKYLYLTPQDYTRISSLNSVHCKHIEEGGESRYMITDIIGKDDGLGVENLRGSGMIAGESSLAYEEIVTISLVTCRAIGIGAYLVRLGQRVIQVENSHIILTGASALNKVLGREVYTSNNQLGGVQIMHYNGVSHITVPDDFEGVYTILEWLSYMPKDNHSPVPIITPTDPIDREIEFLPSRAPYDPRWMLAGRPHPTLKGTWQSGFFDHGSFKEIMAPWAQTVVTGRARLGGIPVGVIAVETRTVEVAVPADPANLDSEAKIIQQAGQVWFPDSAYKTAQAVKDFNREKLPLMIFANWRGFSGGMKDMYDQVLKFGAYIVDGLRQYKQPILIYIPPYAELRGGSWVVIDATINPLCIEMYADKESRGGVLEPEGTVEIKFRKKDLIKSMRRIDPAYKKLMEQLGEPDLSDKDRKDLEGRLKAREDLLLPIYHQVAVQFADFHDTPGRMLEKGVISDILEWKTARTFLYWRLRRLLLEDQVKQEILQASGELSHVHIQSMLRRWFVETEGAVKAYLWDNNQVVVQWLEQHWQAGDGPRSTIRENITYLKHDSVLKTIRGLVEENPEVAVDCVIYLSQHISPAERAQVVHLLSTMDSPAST

Row | SMILES | IC50 (human (hACC2) ACC2) | IC90 (Botrtyis cinerea (Bc); Table 4a) | IC90 (Botrtyis cinerea (Bc); Table 4b) | IC90 ([2]; Table 4a) | IC90 ([2]; Table 4b) | IC90 (Diplodia maydis (Dm); Table 4a) | IC90 (Diplodia maydis (Dm); Table 4b) | IC90 (Rhizoctonia solani (Rs); Table 4a) | IC90 (Rhizoctonia solani (Rs); Table 4b) | IC50 (fungal (fACC2) ACC2) | MIC (C. albicans ATCC 90028; [8]) | MIC (C. krusei ATCC 6258; [9]) | MIC [1, 10] | IC90 ([3]; Table 4a, 48 hours) | IC90 ([3]; Table 4b, 48 hours) | IC90 [4, 11] | IC90 [4, 12] | IC90 ([5]; Table 4a, 48 hours) | Concentration at 90% Inhibition Pc ([5]; Table 4b, 48 hours) | Concentration at 90% Inhibition St (Septoria tritici (St); Table 4b, 48 hours) | also measured
1 | CCO[C@@H](Cn1c(=O)n(C(C)(C)C(=O)NC(C)C)c(=O)c2c(C)c(-n3cccn3)sc21)c1cc(F)ccc1OC [Compound I-33, (R)-2-(1-(2-ethoxy-2-(5-fluoro-2-methoxyphenyl)ethyl)-5-methyl-2,4-dioxo-6-(1H-pyrazol-1-yl)-1,4-dihydrothieno[2,3-d]pyrimidin-3(2H)-yl)-N-isopropyl-2-methylpropanamide] | 10 to 40 nM | 2 µg/mL (≈ 3.5 µM) | 2 µg/mL (≈ 3.5 µM) | 10 µg/mL (≈ 17.5 µM) | 2 µg/mL (≈ 3.5 µM) | > 50 µg/mL | > 50 µg/mL | 10 µg/mL (≈ 17.5 µM) | 2 µg/mL (≈ 3.5 µM) | 0.6 to 3 nM | – | – | – | – | – | – | – | – | – | – | MIC (C. albicans ATCC 90028; ATCC90028, 48 h): > 4.1 µg/mL; MIC (C. krusei ATCC 6258; ATCC6258, 48 h): > 4.1 µg/mL; MIC ([1]; ATCC22019, 48 h): > 4.1 µg/mL; IC90 [3]: 0.4 µg/mL (≈ 0.7 µM); Concentration at 90% Inhibition Fm ([3]; Table 4b, 48 hours): A (“A” provided a compound concentration of 0.4 ppm at 90% inhibition of fungal pathogens); IC90 [4, 6]: 0.4 µg/mL (≈ 0.7 µM); IC90 [4, 7]: 0.4 µg/mL (≈ 0.7 µM); IC90 ([5]; 48 h, Table 4a): > 50 µg/mL; IC90 ([5]; 48 h, Table 4b): > 50 µg/mL; IC90 (Septoria tritici (St); 48 h, Table 4a): > 50 µg/mL; IC90 (Septoria tritici (St); 48 h, Table 4b): > 50 µg/mL
2 | CCO[C@@H](Cn1c(=O)n(C(C)(C)C(=O)N2CCCC2)c(=O)c2c(C)c(-n3cccn3)sc21)c1cc(F)ccc1OC [Compound I-34, (R)-1-(2-ethoxy-2-(5-fluoro-2-methoxyphenyl)ethyl)-5-methyl-3-(2-methyl-1-oxo-1-(pyrrolidin-1-yl)propan-2-yl)-6-(1H-pyrazol-1-yl)thieno[2,3-d]pyrimidine-2,4(1H,3H)-dione] | 10 to 40 nM | 0.4 µg/mL (≈ 0.685 µM) | 0.4 µg/mL (≈ 0.685 µM) | 2 µg/mL (≈ 3.43 µM) | 2 µg/mL (≈ 3.43 µM) | 10 µg/mL (≈ 17.1 µM) | 2 µg/mL (≈ 3.43 µM) | 2 µg/mL (≈ 3.43 µM) | 2 µg/mL (≈ 3.43 µM) | 0.6 to 3 nM | > 4.1 µg/mL | > 4.1 µg/mL | > 4.1 µg/mL | 0.08 µg/mL (≈ 0.137 µM) | 0.08 µg/mL (≈ 0.137 µM) | 0.4 µg/mL (≈ 0.685 µM) | 0.4 µg/mL (≈ 0.685 µM) | > 50 µg/mL | D (“D” provided a compound concentration of >50 ppm at 90% inhibition of fungal pathogens) | D (“D” provided a compound concentration of >50 ppm at 90% inhibition of fungal pathogens) | IC90 (Septoria tritici (St); Table 4a, 48 hours): > 50 µg/mL
3 | COc1ccc(F)cc1[C@H](Cn1c(=O)n(C(C)(C)C(=O)N2CCCC2)c(=O)c2c(C)c(-n3cccn3)sc21)OCCO [Compound I-36, (R)-1-(2-(5-fluoro-2-methoxyphenyl)-2-(2-hydroxy-ethoxy)ethyl)-5-methyl-3-(2-methyl-1-oxo-1-(pyrrolidin-1-yl)propan-2-yl)-6-(1H-pyrazol-1-yl)thieno[2,3-d]pyrimidine-2,4(1H,3H)-dione] | 3 to 10 nM | > 50 µg/mL | 10 µg/mL (≈ 16.7 µM) | > 50 µg/mL | 10 µg/mL (≈ 16.7 µM) | > 50 µg/mL | > 50 µg/mL | > 50 µg/mL | 10 µg/mL (≈ 16.7 µM) | 0.6 to 3 nM | 2.1 to 4 µg/mL (≈ 3.5 to 6.67 µM) | 1.1 to 2 µg/mL (≈ 1.83 to 3.34 µM) | 2.1 to 4 µg/mL (≈ 3.5 to 6.67 µM) | 2 µg/mL (≈ 3.34 µM) | 2 µg/mL (≈ 3.34 µM) | 2 µg/mL (≈ 3.34 µM) | 2 µg/mL (≈ 3.34 µM) | > 50 µg/mL | D (“D” provided a compound concentration of >50 ppm at 90% inhibition of fungal pathogens) | D (“D” provided a compound concentration of >50 ppm at 90% inhibition of fungal pathogens) | IC90 (Septoria tritici (St); Table 4a, 48 hours): > 50 µg/mL
4 | COc1ccc(F)cc1[C@H](Cn1c(=O)n(C(C)(C)C(=O)N2CCCC2)c(=O)c2c(C)c(-n3cccn3)sc21)OC[C@@H](C)O [Compound I-37, 1-((R)-2-(5-fluoro-2-methoxyphenyl)-2-((R)-2-hydroxy-propoxy)ethyl)-5-methyl-3-(2-methyl-1-oxo-1-(pyrrolidin-1-yl)propan-2-yl)-6-(1H-pyrazol-1-yl)thieno[2,3-d]pyrimidine-2,4(1H,3H)-dione] | 3 to 10 nM | 2 µg/mL (≈ 3.26 µM) | 2 µg/mL (≈ 3.26 µM) | > 50 µg/mL | 10 µg/mL (≈ 16.3 µM) | > 50 µg/mL | 10 µg/mL (≈ 16.3 µM) | 10 µg/mL (≈ 16.3 µM) | 2 µg/mL (≈ 3.26 µM) | 0.6 to 3 nM | 2.1 to 4 µg/mL (≈ 3.42 to 6.52 µM) | 1.1 to 2 µg/mL (≈ 1.79 to 3.26 µM) | 2.1 to 4 µg/mL (≈ 3.42 to 6.52 µM) | 0.4 µg/mL (≈ 0.652 µM) | 0.4 µg/mL (≈ 0.652 µM) | 2 µg/mL (≈ 3.26 µM) | 2 µg/mL (≈ 3.26 µM) | > 50 µg/mL | D (“D” provided a compound concentration of >50 ppm at 90% inhibition of fungal pathogens) | D (“D” provided a compound concentration of >50 ppm at 90% inhibition of fungal pathogens) | IC90 (Septoria tritici (St); Table 4a, 48 hours): > 50 µg/mL
5 | COc1ccc(F)cc1[C@H](Cn1c(=O)n(C(C)(C)C(=O)NC(C)C)c(=O)c2c(C)c(-n3cccn3)sc21)OC[C@H](C)O [Compound I-38, 2-(1-((R)-2-(5-fluoro-2-methoxyphenyl)-2-((S)-2-hydroxy-propoxy)ethyl)-5-methyl-2,4-dioxo-6-(1H-pyrazol-1-yl)-1,4-dihydrothieno[2,3-d]pyrimidin-3(2H)-yl)-N-isopropyl-2-methylpropanamide] | 10 to 40 nM | 2 µg/mL (≈ 3.32 µM) | 2 µg/mL (≈ 3.32 µM) | > 50 µg/mL | 10 µg/mL (≈ 16.6 µM) | > 50 µg/mL | 10 µg/mL (≈ 16.6 µM) | 10 µg/mL (≈ 16.6 µM) | 2 µg/mL (≈ 3.32 µM) | 0.6 to 3 nM | – | – | – | – | – | – | – | – | – | – | MIC (C. albicans ATCC 90028; ATCC90028, 48 h): > 4.1 µg/mL; MIC (C. krusei ATCC 6258; ATCC6258, 48 h): 2.1 to 4 µg/mL (≈ 3.49 to 6.65 µM); MIC ([1]; ATCC22019, 48 h): > 4.1 µg/mL; IC90 [3]: 0.4 µg/mL (≈ 0.665 µM); Concentration at 90% Inhibition Fm ([3]; Table 4b, 48 hours): A (“A” provided a compound concentration of 0.4 ppm at 90% inhibition of fungal pathogens); IC90 [4, 6]: 2 µg/mL (≈ 3.32 µM); IC90 [4, 7]: 2 µg/mL (≈ 3.32 µM); IC90 ([5]; 48 h, Table 4a): > 50 µg/mL; IC90 ([5]; 48 h, Table 4b): > 50 µg/mL; IC90 (Septoria tritici (St); 48 h, Table 4a): > 50 µg/mL; IC90 (Septoria tritici (St); 48 h, Table 4b): > 50 µg/mL
